We go through 22 compounds from patent publication US20250084074A1, “SUBSTITUTED HETEROCYCLES AS HSET INHIBITORS” (MERCK PATENT GMBH, priority 2022, published 2025).

Sequence of HSET full length protein (Q9BW19 whole entry): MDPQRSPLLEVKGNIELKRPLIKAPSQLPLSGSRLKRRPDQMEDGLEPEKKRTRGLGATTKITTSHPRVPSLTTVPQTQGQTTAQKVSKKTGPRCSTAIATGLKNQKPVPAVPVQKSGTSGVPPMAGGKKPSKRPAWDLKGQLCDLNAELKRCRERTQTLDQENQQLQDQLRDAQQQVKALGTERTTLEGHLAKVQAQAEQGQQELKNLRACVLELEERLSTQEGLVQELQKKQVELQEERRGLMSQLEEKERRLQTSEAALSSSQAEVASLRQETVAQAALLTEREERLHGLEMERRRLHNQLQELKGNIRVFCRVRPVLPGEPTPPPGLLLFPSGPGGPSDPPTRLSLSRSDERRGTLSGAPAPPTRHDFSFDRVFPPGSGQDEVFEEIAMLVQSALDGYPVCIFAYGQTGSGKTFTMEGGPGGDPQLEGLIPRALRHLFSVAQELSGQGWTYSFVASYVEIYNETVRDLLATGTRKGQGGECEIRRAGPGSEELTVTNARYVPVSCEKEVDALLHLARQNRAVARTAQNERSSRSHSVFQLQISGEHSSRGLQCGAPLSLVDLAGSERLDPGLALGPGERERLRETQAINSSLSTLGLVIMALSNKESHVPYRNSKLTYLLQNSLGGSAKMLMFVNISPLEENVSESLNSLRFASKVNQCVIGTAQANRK

The assay concerns the target HSET full length protein (Homo sapiens (Human), UniProt Q9BW19). The assay can be described thus: HSET ADP-Glo Assay S - 3 μM ATP. The assay is classed as biochemical. The conditions noted are these: 5 nM HSET, 70 μg/mL microtubule, 80 min at rt, read-out: COMBINED HSET ADP GLO IC50. The procedure: Example 281: Testing compounds of the present invention for inhibitory activities against HSET—HSET ADP-Glo Assay S—3 μM ATP
Reagents: (+4° C. Storage) • Paclitaxel Prod.No.TXD.01 2 mM in DMSO (from Universal Biologicals Cambridge). • Tubulin Protein (Pre-formed Microtubules): Bovine Brain Prod.No.MT001-XL Lot.025 10 mg/mL (from Universal Biologicals Cambridge).
Reagents: (−80° C. Storage) • MT001-XL—Tubulin Protein (Pre-formed Microtubules): Bovine Brain—reconstituted in buffer—15 mM PIPES pH7, 1 mM MgCl2, 20 μM paclitaxel (aliquots at 10 mg/mL) from Universal Biologicals Cambridge. • HSET full length protein—Current batch is FL HSET Prep1 (SEQ-000096_002-01_01) • Buffer is 20 mM Hepes pH 7.5, 200 mM NaCl, 2 mM TCEP, 5% glycerol (5 μL aliquots at 10.2 μM)
Reagents: (−20° C. Storage) • ADP-Glo Kinase Assay kit (Promega Prod.No.V9102) 10,000 assay points • ADP-Glo reagent (50 mL), Kinase Detection Reagent (100 mL), and Ultrapure ATP (10 mM) aliquoted
Buffer Stocks (filtered and stored at rt for up to 1 month) • HEPES acid, 4-(2-Hydroxyethyl)piperazine-1-ethanesulfonic acid MW:238, 238.3 mg/mL=1 M • 7149 mg/30 mL=1M (pH to 6.8 with 5 M NaOH) • PIPES, 1,4-Piperazinediethanesulfonic acid MW: 302.4, 30.24 mg/mL=100 mM; 907.2 mg/30 mL=100 mM (pH to 7 with 5 M NaOH, white cloudy suspension until the pH changes) • EGTA, Ethylene glycol-bis(2-aminoethylether)-N,N,N′,N′-tetraacetic acid MW: 380.35, 38.035 mg/mL=100 mM • 1901.75 mg/50 mL=100 mM (pH to ˜7 with 5 M NaOH)—takes a long time to get into solution and for pH to stabilize • Triton-X-100, MW: 625, 62.5 mg/mL=100 mM (6.25% w/v) (viscous, pipette Triton X-100 with a Gilson using a trimmed pipette tip)
ECHO Protocol • Create an ECHO intermediate plate by adding 24.5 μL DMSO to columns 1 & 2, and 40 μL DMSO to columns 23 & 24 of an ECHO 384PP plate • Add 100 nL of compound/DMSO per well in 384-well Proxi-Plate Plus (white) —Perkin Elmer Cat #6008289 using ECHO dose response protocol 100 nL normal to proxi_8pt_200 uM.
Assay buffer (Keep on ice): HEPES pH 6.8, MgCl2, EGTA, Triton X-100, DTT, HPLC H2O Microtubule Working Solution (3.2): • 1 ml PM buffer: PIPES pH 7.0, MgCl2, HPLC H2O, Paclitaxel, mix well, store at rt • Then add 26.4 μL of 10 mg/ml microtubules to 724 μL of the above PM buffer to make 750 μL of microtubule working solution @350 μg/mL microtubules (store at rt)
Stock HSET enzyme solution (3.1)—keep on ice • Add 1.33 μL 10.2 μM HSET Prepi (SEQ-000096_002-01_01) to 1358 μL assay buffer to make a 10 nM stock for a 5 nM final assay concentration (1/1020 dilution).
HSET/Microtubule working solution (3.3) • Mix solutions 3.1 and 3.2 in the ratio of 2.5:1 (1214.3 μL 3.1+485.7 μL 3.2) keep at rt for 15 min • 3.2 is diluted 3.5-fold, 3.1 is diluted 1.4-fold BLANK solution is 357 μL 2XAB+143 μL microtubule working solution 3.2. (Same proportions as HSET/Microtubule working solution (3.3))
ATP Working solution is 1 μL 10 mM UltraPure ATP (Promega kit)+999 μL ddH20 gives 10 μM ATP for a 3 μM final assay concentration, stored on ice.
Assay procedure in PROXIPLATE 384 PLUS WHITE (Perkin Elmer) plates (Remove 2.4 mL ADP Glo and 4.5 mL Kinase detection reagent from freezer to warm up to rt) • Add 3.5 μL BLANK solution to assay plate (column 12) • Add 3.5 μL HSET/Microtubule solution (3.3) (columns 1-11 & 13-24) • Centrifuge at 1000 rpm for 1 min • (pre-incubate enzyme and compound for 10 min)
Add 1.5 μL of 10 μM ATP to start reaction gives a final [HSET] of 5 nM, [ATP] of 3 μM and [microtubule] of 70 μg/mL, centrifuge at 1000 rpm for 1 min and incubated at rt for 80 min.
After the 80-minute incubation, stop reaction by adding 5 μL ADP-Glo reagent to all wells. Centrifuge for 1 min at 1000 rpm, leave for 40 min at rt.
In the dark/away from direct light, add 10 μL Kinase Detection Reagent (KDR) to all wells, Seal plate with a Topseal (Perkin Elmer Cat #6050185) and centrifuge as above, leave for 40 min at rt covered in foil. […]
The term IC50 denotes the concentration that gives 50% inhibition. In the case of `CCOC(=O)c1sc(NC(=O)CCNC(=O)c2cc(/C=C/c3ccccc3)cc(C(=O)OC)c2)nc1C` [Example 22, Ethyl 2-[3-[[3-methoxycarbonyl-5-[(E)-styryl]benzoyl]amino]-propanoylamino]-4-methyl-thiazole-5-carboxylate], the IC50 worked out at 6350 nM.
Next, `CCOC(=O)c1sc(NC(=O)CCNC(=O)c2cccc(-c3ncon3)c2)nc1C` [Example 23, Ethyl 2-(3-(3-(1,2,4-oxadiazol-3-yl)benzamido)propanamido)-4-methylthiazole-5-carboxylate]: 146 nM.
The figure for `CCOC(=O)c1sc(NC(=O)CCNC(=O)c2cc(Cl)cc(-c3noc(C)n3)c2)nc1C` [Example 24, Ethyl 2-(3-(3-chloro-5-(5-methyl-1,2,4-oxadiazol-3-yl)benzamido)-propanamido)-4-methylthiazole-5-carboxylate] is 55 nM.
`CCCOC(=O)c1sc(NC(=O)CCNC(=O)c2cc(Cl)cc(-c3noc(C)n3)c2)nc1C` [Example 25, Propyl 2-(3-(3-chloro-5-(5-methyl-1,2,4-oxadiazol-3-yl)benzamido)propanamido)-4-methylthiazole-5-carboxylate]: the IC50 was found to be 13 nM.
Consider `CCCOC(=O)c1sc(NC(=O)CCNC(=O)c2cc(C)cc(-c3noc(C)n3)c2)nc1C` [Example 26, Propyl 4-methyl-2-(3-(3-methyl-5-(5-methyl-1,2,4-oxadiazol-3-yl)benzamido)propanamido)thiazole-5-carboxylate], for which the IC50 amounted to 13 nM.
In the case of `CCCOC(=O)c1cc(NC(=O)CCNC(=O)c2cc(C)cc(-c3noc(C)n3)c2)nn1C` [Example 27, Propyl 1-methyl-3-(3-(3-methyl-5-(5-methyl-1,2,4-oxadiazol-3-yl)benzamido)propanamido)-1 H-pyrazole-5-carboxylate], the IC50 is 116 nM.
In the case of `CCCOC(=O)c1sc(NC(=O)CCNC(=O)c2cc(C#N)cc(C(F)(F)F)c2)nc1C` [Example 28, Propyl 2-(3-(3-cyano-5-(trifluoromethyl)benzamido)propanamido)-4-methylthiazole-5-carboxylate], the IC50 worked out at 2240 nM.
Take `CCCOC(=O)c1sc(NC(=O)CCNC(=O)c2cc(C(=O)OC)cc(C(C)(C)C)c2)nc1C` [Example 29, Propyl 2-(3-(3-(tert-butyl)-5-(methoxycarbonyl)benzamido)propanamido)-4-methylthiazole-5-carboxylate]: the IC50 stood at 77 nM.
Turning to `CCCOC(=O)c1sc(NC(=O)CCNC(=O)c2cc(C#N)cc(C(=O)OC)c2)nc1C` [Example 30, Propyl 2-(3-(3-cyano-5-(methoxycarbonyl)benzamido)propanamido)-4-methylthiazole-5-carboxylate], the IC50 worked out at 186 nM.
On to `Cc1nc(-c2cc(Cl)cc(C(=O)NCCC(=O)Nc3nc(C)c(C(C)(C)C)s3)c2)no1` [Example 31, N-[3-[(5-tert-butyl-4-methyl-thiazol-2-yl)amino]-3-oxo-propyl]-3-chloro-5-(5-methyl-1,2,4-oxadiazol-3-yl)benzamide], for which the IC50 was determined as 191 nM.
As for `CCCOC(=O)c1sc(NC(=O)CCNC(=O)c2cc(-c3noc(C)n3)cc(C(F)(F)F)c2)nc1C` [Example 32, Propyl 4-methyl-2-(3-(3-(5-methyl-1,2,4-oxadiazol-3-yl)-5-(trifluoromethyl)benzamido)propanamido)thiazole-5-carboxylate], the IC50 amounted to 11 nM.
As for `CCCOC(=O)c1sc(NC(=O)CCNC(=O)c2cc(C(=O)OC)cc([N+](=O)[O-])c2)nc1C` [Example 33, Propyl 2-[3-[(3-methoxycarbonyl-5-nitro-benzoyl)amino]propanoylamino]-4-methyl-thiazole-5-carboxylate], the IC50 is 161 nM.
`CCOC(=O)c1sc(NC(=O)CCNC(=O)c2cccc(-c3nc(C)no3)c2)nc1C` [Example 34, Ethyl 4-methyl-2-(3-(3-(3-methyl-1,2,4-oxadiazol-5-yl)benzamido)propanamido)thiazole-5-carboxylate]: the IC50 was 101 nM.
Regarding `Cc1nc(-c2cccc(C(=O)NCCC(=O)Nc3nc(C)c(C(=O)OCC4CC4)s3)c2)no1` [Example 35, Cyclopropylmethyl 4-methyl-2-(3-(3-(5-methyl-1,2,4-oxadiazol-3-yl)benzamido)propanamido)thiazole-5-carboxylate], the IC50 came to 31 nM.
The figure for `CCOC(=O)c1sc(NC(=O)CCNC(=O)c2cccc(-c3noc(CC)n3)c2)nc1C` [Example 36, Ethyl 2-(3-(3-(5-ethyl-1,2,4-oxadiazol-3-yl)benzamido)propanamido)-4-methylthiazole-5-carboxylate] is 2100 nM.
The figure for `CCOC(=O)c1sc(NC(=O)CCNC(=O)c2cccc(-c3nnc(C)o3)c2)nc1C` [Example 37, Ethyl 4-methyl-2-(3-(3-(5-methyl-1,3,4-oxadiazol-2-yl)benzamido)propanamido)thiazole-5-carboxylate] is 260 nM; for `CCOC(=O)c1sc(NC(=O)CCNC(=O)c2cccc(-c3nnn(C)n3)c2)nc1C` [Example 38, Ethyl 4-methyl-2-(3-(3-(2-methyl-2H-tetrazol-5-yl)benzamido)propanamido)thiazole-5-carboxylate] it is 27 nM; for `Cc1nc(NC(=O)CCNC(=O)c2cccc(-c3nnn(C)n3)c2)sc1C(=O)OC(C)(C)C` [Example 39, tert-Butyl 4-methyl-2-[3-[[3-(2-methyltetrazol-5-yl)benzoyl]amino]propanoylamino]thiazole-5-carboxylate] it is 8 nM.
The figure for `Cc1nc(NC(=O)CCNC(=O)c2cccc(-c3nnn(C)n3)c2)sc1C(=O)OC(C)C` [Example 40, Isopropyl 4-methyl-2-[3-[[3-(2-methyltetrazol-5-yl)benzoyl]amino]propanoylamino]thiazole-5-carboxylate] is 10 nM.
Consider `Cc1nc(NC(=O)CCNC(=O)c2cccc(-c3nnn(C)n3)c2)sc1C(C)(C)C` [Example 41, N-[3-[(5-tert-butyl-4-methyl-thiazol-2-yl)amino]-3-oxo-propyl]-3-(2-methyltetrazol-5-yl)benzamide], for which the IC50 is 184 nM.
On to `CCOC(=O)c1cccc(C(=O)NCCC(=O)Nc2nc(C)c(C(=O)OCC)s2)c1` [Example 42, Ethyl 2-(3-(3-(ethoxycarbonyl)benzamido)propanamido)-4-methylthiazole-5-carboxylate], for which the IC50 stood at 1790 nM.
With `CCOC(=O)c1sc(NC(=O)CCNC(=O)c2cc(C)cc(-c3noc(C)n3)c2)nc1C` [Example 43, Ethyl 4-methyl-2-(3-(3-methyl-5-(5-methyl-1,2,4-oxadiazol-3-yl)benzamido)propanamido)thiazole-5-carboxylate], the 50% inhibitory concentration (IC50) turned out to be 44 nM.
